From patent US7476753B2, “3-aryl-2-cyano-3-hydroxy-acrylic acid derivatives” (Ciba Specialty Chemicals Corporation, priority 2003, dated 2009)
In brackets after ≈: the same amount, converted by molar mass.

Legend:
[1] = test system: P. nigrescens ATCC33563; experiment: MIC vs. oral germs, broth dilution method; format: cell-based, Prevotella nigrescens; conditions: Prevotella nigrescens, ATCC33563, read-out: MHK (MIC) P. nigrescens ATCC33563
Text: (§1) b) Determination of MIC vs. different oral germs in the broth dilution method • Medium: Thioglycolate Bouillon with Hemin and Menadion Columbia Bouillon with Hemin and Menadion für P. gingivalis und P. nigrescens • diluent: the corresponding amount of the substances was pippeted directly • Examples of Test organisms: • Actinobacillus actinomycetemcomitans ATCC43718 • Streptococcus gordonii ATCC10558 • Streptococcus mutans ATCC33402 • Actinomyces viscosus ATCC43146 • Fusobacterium nucleatum subsp. polymorphum ATCC1095 • Porphyromonas gingivalis ATCC3277 • Prevotella nigrescens ATCC33563 • Incubation: 7-10 days at 37° C. under anaerobic conditions, resp. 24 h aerobically with 10% CO2 for Streptococci und A. actinomycetemcomitans • Test solution: Stock solutions in ethanol with 1500 ppm (w/w) are used from all test substances
(§2) Bacteria are taken from blood agar plates with cotton swabs and a suitable O.D. is adjusted in the corresponding medium (McFarland 0.5). This solution is used for F. nucleatum and P. nigrescens in undiluted state, for the other strains a dilution of 1:20 is used. To each 2 ml of active ingredient containing solution 0.1 ml of the bacteria culture is added and incubated as described above.

[2] = test system: P. gingivalis ATCC3277; experiment: MIC vs. oral germs, broth dilution method; format: cell-based, Porphyromonas gingivalis; conditions: Porphyromonas gingivalis, ATCC3277, read-out: MHK (MIC) P. gingivalis ATCC3277
Text: as §1, §2

[3] = test system: Staphylococcus aureus ATCC 6538; experiment: Automatic MIC-Screening, broth dilution method; format: cell-based; conditions: micro titer plates, 37° C., 24 hours, tested 120 to 3.75 μg/ml
Experimental: (§3) Determination of the Minimum Inhibitory Concentration (MIC Value)
(§4) 8 μl of each dilution step is mixed with 192 μl of nutrient medium in micro titer plates. The plates are incubated at 37° C. for 24 hours and then the highest dilution (lowest concentration) of the test substance at which growth is just no longer discernible is determined (corresponds to the MIC).

[4] = test system: Actinomyces viscosus ATCC 43146; experiment: Automatic MIC-Screening, broth dilution method; format: cell-based; conditions: micro titer plates, 37° C., 24 hours, tested 120 to 3.75 μg/ml
Experimental: as §3, §4

[5] = test system: Corynebacterium sp. (Corynebacterium xerosis ATCC 373 oder C. minutissimum ATCC 23348); experiment: Automatic MIC-Screening, broth dilution method; format: cell-based; conditions: micro titer plates, 37° C., 24 hours, tested 120 to 3.75 μg/ml
Experimental: as §3, §4

[6] = test system: A. actinomycetemcomitans ATCC43718; experiment: MIC vs. oral germs, broth dilution method; format: cell-based, Actinobacillus actinomycetemcomitans; conditions: Aggregatibacter actinomycetemcomitans, ATCC43718, 24 h, read-out: MHK (MIC) A. actinomycetemcomitans ATCC43718
Text: as §1, §2

[7] = test system: Aspergillus niger ATCC 6275; experiment: MIC, Agar incorporation test; format: cell-based; conditions: Aspergillus niger, ATCC6275
Experimental: (§5) 0.3 ml of each dilution step is mixed with 15 ml of nutrient medium while the latter is still liquid. After the nutrient medium has solidified, 10 μl of each of the following organism dilutions of the test strains in 0.85% NaCl solution are spotted onto the agar medium.
(§6) The plates are incubated during 24 hours at 37° C. and then the highest dilution (lowest concentration) of the test substance at which growth is just no longer discernible (corresponds to the MIC) is determined.

[8] = test system: Propionibacterium acnes ATCC 6919; experiment: MIC, Agar incorporation test; format: cell-based; conditions: Cutibacterium acnes, ATCC6919, 24 hours at 37° C.
Experimental: as §5, §6

[9] = test system: Staphylococcus aureus ATCC 6538; experiment: MIC, Agar incorporation test; format: cell-based; conditions: Staphylococcus aureus, ATCC6538, 24 hours at 37° C.
Experimental: as §5, §6

[10] = test system: Corynebacterium xerosis ATCC 373; experiment: MIC, Agar incorporation test; format: cell-based; conditions: Corynebacterium xerosis, ATCC373, 24 hours at 37° C.
Experimental: as §5, §6

[11] = test system: C. minutissimum ATCC 23348; experiment: MIC, Agar incorporation test; format: cell-based; conditions: Corynebacterium minutissimum, ATCC23348, 24 hours at 37° C.
Experimental: as §5, §6

[12] = test system: Pseudomonas aeruginosa ATCC 15442; experiment: MIC, Agar incorporation test; format: cell-based; conditions: Pseudomonas aeruginosa, ATCC15442, 24 hours at 37° C.
Experimental: as §5, §6

[13] = test system: Staphylococcus epidermidis ATCC 12228; experiment: MIC, Agar incorporation test; format: cell-based; conditions: Staphylococcus epidermidis, ATCC12228, 24 hours at 37° C.
Experimental: as §5, §6

[14] = test system: Escherischia coli ATCC 10536; experiment: MIC, Agar incorporation test; format: cell-based; conditions: 24 hours at 37° C.
Experimental: as §5, §6

[15] = test system: Klebsiella pneumoniae ATCC 4352; experiment: MIC, Agar incorporation test; format: cell-based; conditions: Klebsiella pneumoniae, ATCC4352, 24 hours at 37° C.
Experimental: as §5, §6

[16] = test system: Proteus vulgaris ATCC 6896; experiment: MIC, Agar incorporation test; format: cell-based; conditions: Proteus vulgaris, ATCC6896, 24 hours at 37° C.
Experimental: as §5, §6

[17] = test system: F. nucleatum subsp. polymorphum ATCC10953; experiment: MIC vs. oral germs, broth dilution method; format: cell-based, Fusobacterium nucleatum subsp. polymorphum; conditions: Fusobacterium nucleatum, ATCC10953, read-out: MHK (MIC) F. nucleatum subsp. polymorphum ATCC10953
Text: as §1, §2

[18] = test system: S. gordonii ATCC10558; experiment: MIC vs. oral germs, broth dilution method; format: cell-based, Streptococcus gordonii; conditions: Streptococcus gordonii, ATCC10558, 24 h, read-out: MHK (MIC) S. gordonii ATCC10558
Text: as §1, §2

[19] = test system: S. mutans ATCC33402; experiment: MIC vs. oral germs, broth dilution method; format: cell-based, Streptococcus mutans; conditions: Streptococcus mutans, ATCC33402, 24 h, read-out: MHK (MIC) S. mutans ATCC33402
Text: as §1, §2

[20] = test system: A. viscosus ATCC43146; experiment: MIC vs. oral germs, broth dilution method; format: cell-based, Actinomyces viscosus; conditions: Actinomyces viscosus, ATCC43146, read-out: MHK (MIC) A. viscosus ATCC43146
Text: as §1, §2

[21] = test system: Candida albicans ATCC 10231; experiment: MIC, Agar incorporation test; format: cell-based; conditions: Candida albicans, ATCC10231, 72 h, Sabouraud 4% glucose agar, 3 days at 28° C.
Experimental: 0.3 ml of each dilution step is mixed with 15 ml of nutrient medium while the latter is still liquid. After the nutrient medium has solidified, 10 μl of each of the following organism dilutions of the test strains in 0.85% NaCl solution are spotted onto the agar medium. […]

Structure (SMILES) | MIC [1] [µg/mL] | MIC [2] [µg/mL] | MIK (MIC) S. aureus [3] [μγ/ml] | MIK (MIC) A. viscosus [4] [μγ/ml] | MIK (MIC) Corynebacterium sp. [5] [μγ/ml] | MIC [6] [µg/mL] | MIC [7] [µg/mL] | MIC [8] [µg/mL] | MIC [9] [µg/mL] | MIC [10] [µg/mL] | MIC [11] [µg/mL] | MIC [12] [µg/mL] | MIC [13] [µg/mL] | MIC [14] [µg/mL] | MIC [15] [µg/mL] | MIC [16] [µg/mL] | MIC [17] [µg/mL] | MIC [18] [µg/mL] | MIC [19] [µg/mL] | MIC [20] [µg/mL] | further results
CCCCOC(=O)/C(C#N)=C(\O)c1ccc(-c2ccccc2)cc1 [(101b), 3-biphenyl-4-yl-2-cyano-3-hydroxy-acrylic acid butylester] | > 15 | 3.75 (≈ 11.7 µM) | 7.5 | 7.5 | 15 | 15 (≈ 46.7 µM) | > 100 | 12.5 (≈ 38.9 µM) | 6.25 (≈ 19.4 µM) | 3.13 (≈ 9.74 µM) | 12.5 (≈ 38.9 µM) | > 100 | 6.25 (≈ 19.4 µM) | > 100 | > 100 | > 100 | ≤ 0.94 | 3.75 (≈ 11.7 µM) | 5.63 (≈ 17.5 µM) | 3.75 (≈ 11.7 µM) | MIC [21]: > 100 µg/mL
CC(C)COC(=O)/C(C#N)=C(\O)c1ccc(-c2ccccc2)cc1 [(101c), 3-biphenyl-4-yl-2-cyano-3-hydroxy-acrylic acid isobutylester] | > 15 | 7.5 (≈ 23.3 µM) | 7.5 | 7.5 | 7.5 | 15 (≈ 46.7 µM) | > 50 | 12.5 (≈ 38.9 µM) | 12.5 (≈ 38.9 µM) | 3.13 (≈ 9.74 µM) | 12.5 (≈ 38.9 µM) | > 50 | 6.25 (≈ 19.4 µM) | > 50 | > 50 | > 50 | 7.5 (≈ 23.3 µM) | 3.75 (≈ 11.7 µM) | 5.63 (≈ 17.5 µM) | 7.5 (≈ 23.3 µM) | MIC [21]: > 50 µg/mL
CCCCCCCCOC(=O)/C(C#N)=C(\O)c1ccc(-c2ccccc2)cc1 [(101d), 3-biphenyl-4-yl-2-cyano-3-hydroxy-acrylic acid octylester] | > 15 | 7.5 (≈ 19.9 µM) | <3.75 | <3.75 | <3.75 | ≥ 15 | > 400 | 6.25 (≈ 16.6 µM) | < 1.56 | < 1.56 | < 1.56 | > 400 | < 1.56 | > 400 | > 400 | > 400 | 15 (≈ 39.7 µM) | ≤ 0.94 | ≤ 0.94 | ≤ 0.94 | MIC [21]: > 400 µg/mL
